Experiments:
Type in all cases: in vivo
[1] = system: POAAN Poa annua (annual bluegrass); test: Field trial, visual weed control in winter oilseed rape
Experimental: (§1) Multiple small plot research experiments were conducted to evaluate efficacy and tolerance of winter oilseed rape to compositions described herein. Typical small plots (2-4×4-10 meters (m)) were used in growers' fields under natural conditions with normal commercial cultural practices. Backpack sprayers were used to apply all treatments based on unit area. The methyl ester of formula (I) and propyzamide were tested alone and in combination at varying rates. […] Crop stage was at Growth Stage 39-50. Visual crop injury ratings were collected 32, 49, and 74 days after treatment. […] The reported values are means. […] The following abbreviations are used in Tables 2-4: • GERSS Geranium sp. (cranesbill) • POAAN Poa annua (annual bluegrass) • VERSS Veronica sp.

[2] = system: VERSS Veronica sp. (speedwell); test: as above
Experimental: as §1

[3] = system: GERSS Geranium sp. (cranesbill); test: as above
Experimental: as §1

[4] = system: GLXMA Glycine max (volunteer soybean); test: Postemergent herbicidal activity, greenhouse; conditions: foliar, 14 d
Experimental: (§2) Evaluation of Postemergent Herbicidal Activity. Seeds or nutlets of the desired test plant species were planted in Sun Gro Metro-Mix® 360 planting mixture, which typically has a pH of 6.0 to 6.8 and an organic matter content of about 30 percent, in plastic pots with a surface area of 64 square centimeters (cm^2). […] The plants were grown for 7-21 days (d) in a greenhouse with an approximate 15 hour (h) photoperiod which was maintained at about 23-29° C. during the day and 22-28° C. during the night. Nutrients and water were added on a regular basis and supplemental lighting was provided with overhead metal halide 1000-Watt lamps as necessary. The plants were employed for testing when they reached the first or second true leaf stage.
(§3) A weighed amount, determined by the highest rate to be tested, of each test compound was placed in a 25 milliliter (mL) glass vial and was dissolved in 4 mL of a 97:3 volume per volume (v/v) mixture of acetone and dimethyl sulfoxide (DMSO) to obtain concentrated stock solutions. […] The concentrated stock solutions obtained were diluted with 20 mL of an aqueous mixture containing acetone, water, isopropyl alcohol, DMSO, Atplus 411F crop oil concentrate, and Triton® X-155 surfactant in a 48.5:39:10:1.5:1.0:0.02 v/v ratio to obtain spray solutions containing the highest application rates. Additional application rates were obtained by serial dilution of 12 mL of the high rate solution into a solution containing 2 mL of a 97:3 v/v mixture of acetone and DMSO and 10 mL of an aqueous mixture containing acetone, water, isopropyl alcohol, DMSO, Atplus 411F crop oil concentrate, and Triton X-155 surfactant in a 48.5:39:10:1.5:1.0:0.02 v/v ratio to obtain 1/2×, 1/4×, 1/8× and 1/16× rates of the high rate. Compound requirements are based upon a 12 mL application volume at a rate of 187 liters per hectare (L/ha). Formulated compounds were applied to the plant material with an overhead Mandel track sprayer equipped with 8002E nozzles calibrated to deliver 187 L/ha over an application area of 0.503 square meters (m^2) at a spray height of 18 inches (43 cm) above the average plant canopy height. Control plants were sprayed in the same manner with the solvent blank.
(§4) Treatments consisted of the methyl ester of 4-amino-3-chloro-6-(4-chloro-2-fluoro-3-methoxyphenyl)pyridine-2-carboxylic acid (Cmpd 1) as technical grade material and propyzamide (Kerb 50 W) alone and in combination.
(§5) The treated plants and control plants were placed in a greenhouse as described above and watered by subirrigation to prevent wash-off of the test compounds. After 14 d, the condition of the test plants as compared with that of the untreated plants was determined visually and scored on a scale of 0 to 100 percent where 0 corresponds to no injury and 100 corresponds to complete kill.
(§6) Colby's equation was used to determine the herbicidal effects expected from the mixtures (Colby, S. R. Calculation of the synergistic and antagonistic response of herbicide combinations. Weeds 1967, 15, 20-22). More specifically, the following equation was used to calculate the expected activity of mixtures containing two active ingredients, A and B: Expected=A+B−(A×B/100) A=observed efficacy of active ingredient A at the same concentration as used in the mixture; B=observed efficacy of active ingredient B at the same concentration as used in the mixture.

[5] = system: POLCO Polygonum convolvulus L. (wild buckwheat); test: Postemergent herbicidal activity, greenhouse; conditions: foliar, 14 d
Experimental: as §2, §3, §4, §5, §6

[6] = system: BRSNW Brassica napus (winter oilseed rape); test: Postemergent herbicidal activity, greenhouse; conditions: foliar, 14 d
Experimental: as §2, §3, §4, §5, §6

[7] = system: VIOTR Viola tricolor L. (wild violet); test: Postemergent herbicidal activity, greenhouse; conditions: foliar, 14 d
Experimental: as §2, §3, §4, §5, §6

[8] = system: AMARE Amaranthus retroflexus L. (redroot pigweed); test: Postemergent herbicidal activity, greenhouse; conditions: foliar, 14 d
Experimental: as §2, §3, §4, §5, §6

winter oilseed rape = test: Field trial, visual crop injury ratings; conditions: varying rates, crop Growth Stage 39-50, 32, 49, and 74 days after treatment, in each case
Experimental: Multiple small plot research experiments were conducted to evaluate efficacy and tolerance of winter oilseed rape to compositions described herein. Typical small plots (2-4×4-10 meters (m)) were used in growers' fields under natural conditions with normal commercial cultural practices. Backpack sprayers were used to apply all treatments based on unit area. The methyl ester of formula (I) and propyzamide were tested alone and in combination at varying rates. Application water volume was 150 L/ha. Crop stage was at Growth Stage 39-50. Visual crop injury ratings were collected 32, 49, and 74 days after treatment. […] The reported values are means.

Compound: COC(=O)c1nc(-c2ccc(Cl)c(OC)c2F)cc(N)c1Cl [Cmpd I, methyl ester of 4-amino-3-chloro-6-(4-chloro-2-fluoro-3-methoxyphenyl)pyridine-2-carboxylic acid]
- % control rated visually, ob (observed) ([1]; Cmpd I 1.25 g ae/ha, 32 DAAA): 7.5%
- % control rated visually, ob (observed) ([1]; Cmpd I 1.25 g ae/ha, 58 DAAA): 11.3%
- % control rated visually, ob (observed) ([1]; Cmpd I 1.25 g ae/ha, 80 DAAA): 16.3%
- % control rated visually, ob (observed) ([1]; Cmpd I 2.5 g ae/ha, 32 DAAA): 10.0%
- % control rated visually, ob (observed) ([1]; Cmpd I 2.5 g ae/ha, 58 DAAA): 15.0%
- % control rated visually, ob (observed) ([1]; Cmpd I 2.5 g ae/ha, 80 DAAA): 15.0%
- % control rated visually, ob (observed) ([1]; Cmpd I 5 g ae/ha, 32 DAAA): 6.3%
- % control rated visually, ob (observed) ([1]; Cmpd I 5 g ae/ha, 58 DAAA): 12.5%
- % control rated visually, ob (observed) ([1]; Cmpd I 5 g ae/ha, 80 DAAA): 6.3%
- % control rated visually, ob (observed) ([1]; Cmpd I 7.5 g ae/ha, 32 DAAA): 28.8%
- % control rated visually, ob (observed) ([1]; Cmpd I 7.5 g ae/ha, 58 DAAA): 28.8%
- % control rated visually, ob (observed) ([1]; Cmpd I 7.5 g ae/ha, 80 DAAA): 18.8%
- % control rated visually, ob (observed) ([2]; Cmpd I 1.25 g ae/ha, 32 DAAA): 10.0%
- % control rated visually, ob (observed) ([2]; Cmpd I 1.25 g ae/ha, 80 DAAA): 80.0%
- % control rated visually, ob (observed) ([2]; Cmpd I 2.5 g ae/ha, 32 DAAA): 26.3%
- % control rated visually, ob (observed) ([2]; Cmpd I 2.5 g ae/ha, 80 DAAA): 97.5%
- % control rated visually, ob (observed) ([2]; Cmpd I 5 g ae/ha, 32 DAAA): 45.0%
- % control rated visually, ob (observed) ([2]; Cmpd I 5 g ae/ha, 80 DAAA): 100.0%
- % control rated visually, ob (observed) ([2]; Cmpd I 7.5 g ae/ha, 32 DAAA): 81.3%
- % control rated visually, ob (observed) ([2]; Cmpd I 7.5 g ae/ha, 80 DAAA): 100.0%
- % control rated visually, ob (observed) ([3]; Cmpd I 1.25 g ae/ha, 32 DAAA): 42.5%
- % control rated visually, ob (observed) ([3]; Cmpd I 1.25 g ae/ha, 58 DAAA): 62.5%
- % control rated visually, ob (observed) ([3]; Cmpd I 1.25 g ae/ha, 80 DAAA): 53.8%
- % control rated visually, ob (observed) ([3]; Cmpd I 2.5 g ae/ha, 32 DAAA): 42.5%
- % control rated visually, ob (observed) ([3]; Cmpd I 2.5 g ae/ha, 58 DAAA): 57.5%
- % control rated visually, ob (observed) ([3]; Cmpd I 2.5 g ae/ha, 80 DAAA): 67.5%
- % control rated visually, ob (observed) ([3]; Cmpd I 5 g ae/ha, 32 DAAA): 89.3%
- % control rated visually, ob (observed) ([3]; Cmpd I 5 g ae/ha, 58 DAAA): 77.5%
- % control rated visually, ob (observed) ([3]; Cmpd I 5 g ae/ha, 80 DAAA): 69.5%
- % control rated visually, ob (observed) ([3]; Cmpd I 7.5 g ae/ha, 32 DAAA): 91.3%
- % control rated visually, ob (observed) ([3]; Cmpd I 7.5 g ae/ha, 58 DAAA): 91.3%
- % control rated visually, ob (observed) ([3]; Cmpd I 7.5 g ae/ha, 80 DAAA): 99.8%
- % control rated visually, ob (observed) ([4]; Cmpd I 2.5 g ae/ha): 80%
- % control rated visually, ob (observed) ([4]; Cmpd I 5 g ae/ha): 87%
- % control rated visually, ob (observed) ([4]; Cmpd I 10 g ae/ha): 100%
- % control rated visually, ob (observed) ([5]; Cmpd I 2.5 g ae/ha): 35%
- % control rated visually, ob (observed) ([5]; Cmpd I 5 g ae/ha): 25%
- % control rated visually, ob (observed) ([5]; Cmpd I 10 g ae/ha): 48%
- % control rated visually, ob (observed) ([6]; Cmpd I 2.5 g ae/ha): 0%
- % control rated visually, ob (observed) ([6]; Cmpd I 5 g ae/ha): 0%
- % control rated visually, ob (observed) ([6]; Cmpd I 10 g ae/ha): 10%
- % control rated visually, ob (observed) ([7]; Cmpd I 2.5 g ae/ha): 30%
- % control rated visually, ob (observed) ([7]; Cmpd I 5 g ae/ha): 43%
- % control rated visually, ob (observed) ([7]; Cmpd I 10 g ae/ha): 62%
- % control rated visually, ob (observed) ([8]; Cmpd I 2.5 g ae/ha): 50%
- % control rated visually, ob (observed) ([8]; Cmpd I 5 g ae/ha): 58%
- % control rated visually, ob (observed) ([8]; Cmpd I 10 g ae/ha): 77%
- Visual crop injury rating (winter oilseed rape): 0 % injury
